The source made the active and inactive calls. The rule behind the calls is not given here.
What was measured:
[1] = target: T1, Protein cereblon/Polycomb complex protein BMI-1 (Homo sapiens, UniProt Q96SW2+P35226); assay: PROTAC activity at […] in human K562 cells assessed as degradation of BMI1 mRNA expression at 10 uM incubated for 20 hrs by RT-qPCR analysis; type: cell-based
Target sequence in this assay (P35226 whole entry, looked up): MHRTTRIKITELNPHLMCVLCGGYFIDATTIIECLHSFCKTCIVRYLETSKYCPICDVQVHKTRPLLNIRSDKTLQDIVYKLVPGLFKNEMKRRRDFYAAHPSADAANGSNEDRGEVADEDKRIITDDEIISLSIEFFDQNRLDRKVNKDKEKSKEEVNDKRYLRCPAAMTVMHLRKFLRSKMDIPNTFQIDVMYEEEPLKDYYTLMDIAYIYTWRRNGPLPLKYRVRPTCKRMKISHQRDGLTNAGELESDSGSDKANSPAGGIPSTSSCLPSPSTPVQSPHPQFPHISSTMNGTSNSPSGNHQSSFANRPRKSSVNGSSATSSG
Target sequence in this assay (Q96SW2 whole entry, looked up): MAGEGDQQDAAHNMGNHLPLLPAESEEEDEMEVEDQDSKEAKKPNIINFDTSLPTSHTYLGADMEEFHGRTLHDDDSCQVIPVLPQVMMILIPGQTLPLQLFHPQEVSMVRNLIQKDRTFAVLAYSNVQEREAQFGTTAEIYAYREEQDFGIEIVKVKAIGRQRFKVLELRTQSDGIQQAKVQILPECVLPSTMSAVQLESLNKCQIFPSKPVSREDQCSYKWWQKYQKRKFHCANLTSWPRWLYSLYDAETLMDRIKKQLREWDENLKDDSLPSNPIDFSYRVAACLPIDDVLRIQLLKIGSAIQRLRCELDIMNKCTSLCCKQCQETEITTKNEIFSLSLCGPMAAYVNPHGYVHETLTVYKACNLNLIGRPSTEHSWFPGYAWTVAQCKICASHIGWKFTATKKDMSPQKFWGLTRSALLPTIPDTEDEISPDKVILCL

[2] = target: T2, Protein cereblon/E3 ubiquitin-protein ligase RING2 (Homo sapiens, UniProt Q96SW2+Q99496); assay: PROTAC activity at CRBN/RING1B in human PC-3M cells assessed as degradation of RING1B protein expression at 1 uM incubated for 24 hrs by Western blotting analysis; type: cell-based
T2 sequence (Q96SW2 whole entry): as the sequence (Q96SW2 whole entry, looked up) above
T2 sequence (Q99496 2-336 partner limits assumed): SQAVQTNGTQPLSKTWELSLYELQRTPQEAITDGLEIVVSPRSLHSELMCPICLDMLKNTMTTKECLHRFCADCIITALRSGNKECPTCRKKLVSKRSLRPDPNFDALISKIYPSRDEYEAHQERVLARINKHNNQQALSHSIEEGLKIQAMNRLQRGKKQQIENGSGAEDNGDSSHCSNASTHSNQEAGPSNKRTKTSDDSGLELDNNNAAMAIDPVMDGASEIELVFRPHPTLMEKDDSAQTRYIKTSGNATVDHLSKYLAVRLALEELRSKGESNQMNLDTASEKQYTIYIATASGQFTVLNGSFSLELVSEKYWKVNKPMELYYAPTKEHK

[3] = target: T3, Protein cereblon/Polycomb protein SUZ12 (Homo sapiens) (UniProt Q15022+Q96SW2); assay: PROTAC activity at CRBN/SUZ12 in human K562 cells assessed as degradation of SUZ12 protein expression at 0.1 to 10 uM incubated for 24 hrs by Western blotting analysis; type: cell-based; conditions: dose 0.1-10 µM
T3 sequence (Q15022 whole entry, looked up): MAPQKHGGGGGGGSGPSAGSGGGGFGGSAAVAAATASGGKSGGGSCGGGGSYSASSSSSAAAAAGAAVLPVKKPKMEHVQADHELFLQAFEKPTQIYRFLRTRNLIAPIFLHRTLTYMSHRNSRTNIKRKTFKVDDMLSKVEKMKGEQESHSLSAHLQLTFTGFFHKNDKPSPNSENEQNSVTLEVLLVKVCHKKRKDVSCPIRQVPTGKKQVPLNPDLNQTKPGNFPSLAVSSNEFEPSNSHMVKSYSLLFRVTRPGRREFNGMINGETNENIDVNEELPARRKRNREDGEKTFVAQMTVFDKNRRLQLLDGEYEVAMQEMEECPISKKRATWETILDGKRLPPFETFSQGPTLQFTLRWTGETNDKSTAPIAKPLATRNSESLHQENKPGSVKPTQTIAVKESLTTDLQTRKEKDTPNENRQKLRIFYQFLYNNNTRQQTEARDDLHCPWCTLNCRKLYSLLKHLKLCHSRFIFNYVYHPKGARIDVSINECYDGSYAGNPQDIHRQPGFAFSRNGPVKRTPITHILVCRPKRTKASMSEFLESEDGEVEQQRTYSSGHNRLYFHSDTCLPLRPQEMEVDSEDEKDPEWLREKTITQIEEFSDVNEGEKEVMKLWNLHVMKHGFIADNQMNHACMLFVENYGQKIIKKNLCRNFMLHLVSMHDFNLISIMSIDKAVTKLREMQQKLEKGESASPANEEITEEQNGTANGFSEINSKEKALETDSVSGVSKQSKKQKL
T3 sequence (Q96SW2 whole entry, looked up): as the sequence (Q96SW2 whole entry, looked up) above

[4] = target: Protein cereblon/Chromobox protein homolog 8 (Homo sapiens) (UniProt Q9HC52+Q96SW2); assay: PROTAC activity at CRBN/CBX8 in human K562 cells assessed as degradation of CBX8 protein expression at 1 to 10 uM incubated for 24 hrs by Western blotting analysis; type: cell-based; conditions: dose 1-10 µM
K562 [5] = assay: Induction of PRC2 degradation in human K562 cells assessed as reduction of H3K27me3 chromatin mark at 0.1 to 10 uM incubated for 24 hrs by Western blotting analysis; type: cell-based; conditions: dose 0.1-10 µM
[6] = target: T1, Protein cereblon/Polycomb complex protein BMI-1; assay: PROTAC activity at […] in human K562 cells assessed as degradation of BMI1 protein expression at 10 uM incubated for 20 hrs in presence of pomalidomide by Western blotting analysis; type: cell-based
Target sequence in this assay (P35226 whole entry, looked up): as the sequence (P35226 whole entry, looked up) above
Target sequence in this assay (Q96SW2 whole entry, looked up): as the sequence (Q96SW2 whole entry, looked up) above

[7] = target: T2, Protein cereblon/E3 ubiquitin-protein ligase RING2; assay: PROTAC activity at CRBN/RING1B in human K562 cells assessed as degradation of RING1B protein expression at 10 uM measured after 4 hrs by Western blotting analysis; type: cell-based
MDA-MB-468 = assay: Antiproliferative activity against human MDA-MB-468 cells assessed as inhibition of cell growth at 1 to 10 uM incubated for 5 days by WST-8 assay; type: functional, cell-based; conditions: dose 1-10 µM, time 5.0 day
[8] = target: Protein cereblon/Polycomb protein EED (Homo sapiens, UniProt O75530+Q96SW2); assay: PROTAC activity at CRBN/EED in human K562 cells assessed as degradation of EED protein expression at 10 uM measured after 12 hrs by Western blotting analysis relative to control; type: cell-based
Sequence of Protein cereblon/Polycomb protein EED (O75530 2-441 limits assumed): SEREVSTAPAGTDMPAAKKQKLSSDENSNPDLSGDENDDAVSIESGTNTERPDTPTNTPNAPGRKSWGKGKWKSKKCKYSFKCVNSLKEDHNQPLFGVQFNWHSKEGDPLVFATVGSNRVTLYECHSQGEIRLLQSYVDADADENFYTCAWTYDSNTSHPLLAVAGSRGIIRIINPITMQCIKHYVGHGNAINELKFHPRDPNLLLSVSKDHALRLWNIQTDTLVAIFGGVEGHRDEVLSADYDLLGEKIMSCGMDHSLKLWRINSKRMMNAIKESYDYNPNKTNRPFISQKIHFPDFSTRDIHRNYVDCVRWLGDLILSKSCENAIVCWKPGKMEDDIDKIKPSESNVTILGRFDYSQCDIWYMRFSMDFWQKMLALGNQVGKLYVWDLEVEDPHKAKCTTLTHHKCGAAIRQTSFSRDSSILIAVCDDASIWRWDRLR
Sequence of Protein cereblon/Polycomb protein EED (Q96SW2 whole entry partner): as the sequence (Q96SW2 whole entry, looked up) above

[9] = target: T1, Protein cereblon/Polycomb complex protein BMI-1; assay: PROTAC activity at […] in human K562 cells assessed as degradation of BMI1 protein expression at 10 uM measured after 12 hrs by Western blotting analysis relative to control; type: cell-based
Target sequence in this assay (P35226 whole entry, looked up): as the sequence (P35226 whole entry, looked up) above
Target sequence in this assay (Q96SW2 whole entry, looked up): as the sequence (Q96SW2 whole entry, looked up) above

Polycomb protein EED = Polycomb protein EED (Homo sapiens, UniProt O75530); assay: Binding affinity to EED (75 to 441 residues) (unknown origin) expressed in Escherichia coli BL21 (DE3) assessed as dissociation constant by isothermal titration calorimetry
Sequence of Polycomb protein EED (O75530 whole entry, the tested form may be a part): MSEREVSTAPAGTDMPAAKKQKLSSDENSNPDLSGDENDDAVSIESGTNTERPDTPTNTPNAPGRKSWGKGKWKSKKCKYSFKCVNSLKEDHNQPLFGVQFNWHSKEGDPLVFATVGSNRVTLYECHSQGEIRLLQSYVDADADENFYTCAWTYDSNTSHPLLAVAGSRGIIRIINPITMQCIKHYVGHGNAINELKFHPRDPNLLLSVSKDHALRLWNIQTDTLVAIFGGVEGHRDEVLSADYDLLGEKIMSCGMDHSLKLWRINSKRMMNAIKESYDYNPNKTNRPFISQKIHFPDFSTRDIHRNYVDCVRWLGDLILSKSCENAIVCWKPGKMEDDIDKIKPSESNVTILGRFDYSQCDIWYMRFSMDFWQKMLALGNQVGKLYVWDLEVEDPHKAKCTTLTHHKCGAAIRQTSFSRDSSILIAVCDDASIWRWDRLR

[10] = target: Protein cereblon/RING1 and YY1-binding protein (Homo sapiens) (UniProt Q96SW2+Q8N488); assay: PROTAC activity at CRBN/RYBP in human K562 cells assessed as degradation of RYBP protein expression at 1 to 10 uM incubated for 24 hrs by Western blotting analysis; type: cell-based; conditions: dose 1-10 µM
PC-3M [11] = assay: Induction of PRC1 degradation in human PC-3M cells assessed as reduction of H2AK119ub chromatin mark at 5 uM incubated for 24 hrs by Western blotting analysis; type: cell-based
[12] = target: T2, Protein cereblon/E3 ubiquitin-protein ligase RING2; assay: PROTAC activity at CRBN/RING1B in human K562 cells assessed as degradation of RING1B mRNA expression at 10 uM incubated for 20 hrs by RT-qPCR analysis; type: cell-based
786-0 = assay: Antiproliferative activity against human 786-0 cells assessed as inhibition of cell growth at 30 uM incubated for 7 days by WST-8 assay; type: functional, cell-based; conditions: time 7.0 day
K562 [13] = assay: Antiproliferative activity against human K562 cells assessed as fold increase in HoxD mRNA expression at 10 uM incubated for 24 hrs by RT-qPCR analysis; type: functional
[14] = Drug concentration in Swiss albino mouse plasma at 50 mg/kg,ip administration measured after 8 hrs by LC-MS/MS analysis; type: ADME, organism-based
PC-3M [15] = assay: Antiproliferative activity against human PC-3M cells assessed as inhibition of cell growth at 1 to 10 uM incubated for 5 days by WST-8 assay; type: functional, cell-based; conditions: dose 1-10 µM, time 5.0 day
[16] = target: T2, Protein cereblon/E3 ubiquitin-protein ligase RING2; assay: PROTAC activity at CRBN/RING1B in human PC-3M cells assessed as degradation of RING1B protein expression at 5 uM incubated for 24 hrs by Western blotting analysis; type: cell-based
[17] = target: T1, Protein cereblon/Polycomb complex protein BMI-1; assay: PROTAC activity at […] in human K562 cells assessed as degradation of BMI1 protein expression at 10 uM incubated for 20 hrs in presence of MLN4924 by Western blotting analysis; type: cell-based
Target sequence in this assay (P35226 whole entry, looked up): as the sequence (P35226 whole entry, looked up) above
Target sequence in this assay (Q96SW2 whole entry, looked up): as the sequence (Q96SW2 whole entry, looked up) above

[18] = target: T3, Protein cereblon/Polycomb protein SUZ12 (Homo sapiens); assay: PROTAC activity at CRBN/SUZ12 in human PC-3M cells assessed as degradation of SUZ12 protein expression at 0.2 to 5 uM incubated for 24 hrs by Western blotting analysis; type: cell-based; conditions: dose 0.2-5 µM
[19] = target: Protein cereblon/E3 ubiquitin-protein ligase RING1 (Homo sapiens) (UniProt Q96SW2+Q06587); assay: PROTAC activity at CRBN/RING1A in human K562 cells assessed as degradation of RING1A protein expression at 1 to 10 uM incubated for 24 hrs by Western blotting analysis; type: cell-based; conditions: dose 1-10 µM
[20] = target: T2, Protein cereblon/E3 ubiquitin-protein ligase RING2; assay: PROTAC activity at CRBN/RING1B in human K562 cells assessed as degradation of RING1B protein expression at 10 uM measured after 12 hrs by Western blotting analysis relative to control; type: cell-based
K562 [21] = assay: Antiproliferative activity against human K562 cells assessed as fold increase in HoxA mRNA expression at 10 uM incubated for 24 hrs by RT-qPCR analysis; type: functional
[22] = target: T2, Protein cereblon/E3 ubiquitin-protein ligase RING2; assay: PROTAC activity at CRBN/RING1B in human MDA-MB-468 cells assessed as degradation of RING1B protein expression at 5 uM incubated for 24 hrs by Western blotting analysis; type: cell-based
[23] = target: Cereblon/Ikaros (Homo sapiens) (UniProt Q96SW2+Q13422); assay: PROTAC activity at CRBN/IKZF1 in human K562 cells assessed as degradation of IKZF1 protein at 0.1 to 10 uM incubated for 4 hrs by Western blotting analysis; type: cell-based; conditions: dose 0.1-10 µM
[24] = target: T1, Protein cereblon/Polycomb complex protein BMI-1; assay: PROTAC activity at […] in human K562 cells assessed as degradation of BMI1 protein expression at 10 uM incubated for 20 hrs in presence of EED226 by Western blotting analysis; type: cell-based
Target sequence in this assay (P35226 whole entry, looked up): as the sequence (P35226 whole entry, looked up) above
Target sequence in this assay (Q96SW2 whole entry, looked up): as the sequence (Q96SW2 whole entry, looked up) above

[25] = target: T1, Protein cereblon/Polycomb complex protein BMI-1; assay: PROTAC activity at CRBN/BIM1 in human K562 cells assessed as degradation of BMI1 protein expression incubated for 24 hrs by Western blotting analysis; type: cell-based
[26] = target: von Hippel-Lindau disease tumor suppressor/Polycomb complex protein BMI-1 (Homo sapiens) (UniProt P40337+P35226); assay: PROTAC activity at […] in human 786-0 cells with defective VHL assessed as degradation of BMI1 protein expression at 10 uM incubated for 24 hrs by Western blotting analysis; type: cell-based
Sequence of von Hippel-Lindau disease tumor suppressor/Polycomb complex protein BMI-1 (Homo sapiens) (P35226 whole entry, looked up): as the sequence (P35226 whole entry, looked up) above
Sequence of von Hippel-Lindau disease tumor suppressor/Polycomb complex protein BMI-1 (Homo sapiens) (P40337 whole entry, looked up): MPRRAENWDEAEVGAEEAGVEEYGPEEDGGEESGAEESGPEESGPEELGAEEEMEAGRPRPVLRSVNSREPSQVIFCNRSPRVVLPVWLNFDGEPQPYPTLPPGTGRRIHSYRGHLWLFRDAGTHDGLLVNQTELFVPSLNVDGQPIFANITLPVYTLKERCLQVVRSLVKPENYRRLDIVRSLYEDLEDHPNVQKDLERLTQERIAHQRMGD

SMILES: O=C(CNc1cccc2c1C(=O)N(C1CCC(=O)NC1=O)C2=O)NCCCCN1CCN(c2ccc(-c3cnc(NCc4ccco4)n4cnnc34)cc2)CC1 (centres undefined)
- Activity [1]: inactive
- Activity [2]: Active
- Activity [3]: Active
- Activity [4]: inactive
- Activity (K562 [5]): Active
- Activity [6]: inactive
- Activity [7]: Active
- Activity (MDA-MB-468): Active
- Activity [8]: 50%
- Activity [9]: 100%
- Kd (Polycomb protein EED): 0.19 µM
- Activity [10]: inactive
- Activity (PC-3M [11]): Active
- Activity [12]: inactive
- Activity (786-0): Active
- fold change (FC) (K562 [13]): 2.3
- concentration at 8 h [14]: > 500 nM
- Activity (PC-3M [15]): Active
- Activity [16]: Active
- Activity [17]: inactive
- Activity [18]: inactive
- Activity [19]: Active
- Activity [20]: 100%
- fold change (FC) (K562 [21]): 3.1
- Activity [22]: Active
- Activity [23]: inactive
- Activity [24]: inactive
- DC50 [25]: 1.7 µM
- Activity [26]: Active

Source: ChEMBL document CHEMBL5543147, “Discovery and Characterization of a Novel Cereblon-Recruiting PRC1 Bridged PROTAC Degrader” (J Med Chem, 2024)
